# How the values were obtained:
# Experiment in all cases: association of peptide with HLA molecules and stability of the complex
# Conditions in all cases: stable complex: peptide remains bound for at least about 3 hours at 37° C.
# [1] = tested on: HLA molecules of the A29 type; type: binding, human
# Description: (§1) The different epitopes of the polyepitopic region of the predetermined protein, and delimiting the epitopic protein fragments, are preferably selected from the peptides; • binding to a predetermined molecule of MCH, particularly to a molecule of the predetermined HLA type, and this from concentrations of about 10^−6 M to about 10^−10 M in peptide for concentrations of about 10^−7 M of HLA molecules, particularly under the conditions described hereafter, • and forming a stable complex with said MCH molecule, namely particularly a complex in which said peptide remains bound to said molecule for at least about 3 hours at 37° C.
# (§2) By way of illustration, the above-mentioned epitopes of the invention are selected from among the peptides adapted: • on the one hand of associating with the molecules of MCH, particularly by using the following method: • incubation (particularly for about 2 hours at 25° C., then about 15 hours at 4° C.) of the peptide in the presence of MCH molecules, from the lysis of human or animal cells, or purified particularly by affinity chromatography from human or animal cell lines, • trapping complexes formed during the preceding step on a solid support covered with a first antibody, particularly monoclonal, recognizing specifically the CMH molecules in their configuration dependent on their connection to said peptide, • addition to the preceding solid support of a second marked antibody, particularly by coupling to a radioactive, enzymatic or fluorescent marker, said marked antibody recognizing specifically either the long chains of MCH in their configuration dependent on their connection to the peptide, or the short chain of MCH or the β2-microglobulin binding specifically to the different long chains of the MCH in their above-mentioned configuration, • detection, after rinsing of the solid support, of the possible presence of the second marked antibody remaining fixed on the solid support, signifying an association effect between the molecules of MCH and the peptide studied, • and, on the other hand, forming a complex with said MCH molecules, whose stability can be evaluated by the use of a method of following according to time the connection established between the peptide and the MCH molecules, this method being preferably carried out according to a protocol identical to the preceding method, but in which the incubation step of the peptide in the presence of MCH molecules on the solid support covered with said first antibody, is preceded by a preliminary step of eliminating the free peptide adapted that may be present in the reaction medium, particularly by washing the solid support, said incubation step being carried out (preferably at a temperature of 37° C.) for variable times of 1 hours, 3 hours, 5 hours, 24 hours and 48 hours.
# (§3) As mentioned above, the epitopes of the invention should be recognized by the T cells in association with the MCH molecules and associate with these latter, particularly in the framework of the practice of the recognition test described above. This association can be weak (detectable at concentrations of peptide analogs of the order of 10^−4 to 10^−5 M), intermediate (detectable at concentrations of peptide analogs of the order of 10^−6 to 10^−7 M), or strong (detectable at concentrations of peptide analogs of the order of 10^−8 to 10^−9 M). The peptides associated with the MCH molecules in the scope of the present invention are preferably adapted to bond during at least about 3 hours, to said MCH molecules.
# [2] = tested on: HLA molecules of the B44 type; type: binding, human
# Description: as §1, §2, §3
# [3] = tested on: HLA molecules of the A24 type; type: binding, human
# Description: as §1, §2, §3
# [4] = tested on: HLA molecules of the B35 type; type: binding, human
# Description: as §1, §2, §3
# [5] = target: T1, HLA molecules of the B7 type (Homo sapiens, UniProt P01889); type: binding
# T1 construct: endogenous in cells
# Description: as §1, §2, §3
# [6] = tested on: HLA molecules of the B8 type; type: binding, human
# Description: as §1, §2, §3
# [7] = tested on: HLA molecules of the A2 type; type: binding, human
# Description: as §1, §2, §3
# [8] = tested on: HLA molecules of the B51 type; type: binding, human
# Description: as §1, §2, §3
# [9] = tested on: HLA molecules of the B27 type; type: binding, human
# Description: as §1, §2, §3
# [10] = tested on: HLA molecules of the A11 type; type: binding, human
# Description: as §1, §2, §3
# [11] = target: T2, HLA molecules of the A3 type (Homo sapiens, UniProt P04439); type: binding
# T2 construct: endogenous in cells
# Description: as §1, §2, §3
# T1 sequence (P01889 25-362): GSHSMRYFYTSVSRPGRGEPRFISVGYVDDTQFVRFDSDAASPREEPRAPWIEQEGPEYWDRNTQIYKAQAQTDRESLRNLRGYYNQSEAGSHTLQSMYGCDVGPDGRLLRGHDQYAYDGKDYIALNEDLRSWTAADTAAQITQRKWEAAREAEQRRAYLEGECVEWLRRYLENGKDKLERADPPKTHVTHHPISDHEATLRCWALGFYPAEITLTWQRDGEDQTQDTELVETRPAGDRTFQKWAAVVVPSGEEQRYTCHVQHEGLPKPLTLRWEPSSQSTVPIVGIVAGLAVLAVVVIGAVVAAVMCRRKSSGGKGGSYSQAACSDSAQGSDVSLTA
# T1 sequence (P61769 21-119, further chain): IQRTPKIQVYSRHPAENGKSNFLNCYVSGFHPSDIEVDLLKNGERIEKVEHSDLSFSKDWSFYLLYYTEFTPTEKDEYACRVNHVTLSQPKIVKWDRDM
# T2 sequence (P61769 21-119): as the sequence (P61769 21-119, further chain) above
# T2 sequence (P04439 25-365): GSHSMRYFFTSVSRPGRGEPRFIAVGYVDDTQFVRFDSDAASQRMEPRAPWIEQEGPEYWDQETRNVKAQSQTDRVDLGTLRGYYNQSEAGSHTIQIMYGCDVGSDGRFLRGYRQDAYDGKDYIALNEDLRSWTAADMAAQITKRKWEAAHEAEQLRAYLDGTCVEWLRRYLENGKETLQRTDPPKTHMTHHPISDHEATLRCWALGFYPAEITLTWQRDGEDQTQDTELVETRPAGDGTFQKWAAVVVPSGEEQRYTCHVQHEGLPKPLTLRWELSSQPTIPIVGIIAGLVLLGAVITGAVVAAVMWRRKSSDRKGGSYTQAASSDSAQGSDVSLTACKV
sequence,measurement,setting,value
LEDLLMGTL (Human Papillomavirus),binding stably to HLA molecules of the A29 type,[1],binding stably
same,binding stably to HLA molecules of the B44 type,[2],binding stably
VYDFAFRDL (Human Papillomavirus),binding stably to HLA molecules of the A24 type,[3],binding stably
EPDRAHYNIV (Human Papillomavirus),binding stably to HLA molecules of the B35 type,[4],binding stably
same,binding stably to HLA molecules of the B7 type,[5],binding stably
NTFRHSVVV,binding stably to HLA molecules of the B8 type,[6],binding stably
NYMCNSSCM (listed as Homo sapiens),binding stably to HLA molecules of the A24 type,[3],binding stably
VEYLDDRNTF (listed as Homo sapiens),binding stably to HLA molecules of the B44 type,[2],binding stably
DKKQRFHNI (Human Papillomavirus),binding stably to HLA molecules of the B8 type,[6],binding stably
PPGTRVRAM (listed as Homo sapiens),binding stably to HLA molecules of the B35 type,[4],binding stably
TLGIVCPI (Human Papillomavirus),binding stably to HLA molecules of the A2 type,[7],binding stably
LPQLCTEL (Human Papillomavirus),binding stably to HLA molecules of the B51 type,[8],binding stably
ITLEDSSGN (listed as Homo sapiens),binding stably to HLA molecules of the A2 type,[7],binding stably
TYQGSYGFRL,binding stably to HLA molecules of the A24 type,[3],binding stably
GRNSFEVR (listed as Homo sapiens),binding stably to HLA molecules of the B27 type,[9],binding stably
AEPDRAHY (Human Papillomavirus),binding stably to HLA molecules of the A29 type,[1],binding stably
same,binding stably to HLA molecules of the B44 type,[2],binding stably
LRVEYLDDR (listed as Homo sapiens),binding stably to HLA molecules of the B27 type,[9],binding stably
RPRKLPQL (Human Papillomavirus),binding stably to HLA molecules of the B35 type,[4],binding stably
same,binding stably to HLA molecules of the B7 type,[5],binding stably
VRVCACPGR (listed as Homo sapiens),binding stably to HLA molecules of the B27 type,[9],binding stably
TIHDIILRCV,binding stably to HLA molecules of the A2 type,[7],binding stably
IRVEGNLRVEY (listed as Homo sapiens),binding stably to HLA molecules of the B27 type,[9],binding stably
QLCTELQTTI (Human Papillomavirus),binding stably to HLA molecules of the A2 type,[7],binding stably
STPPPGTRV (listed as Homo sapiens),binding stably to HLA molecules of the A2 type,[7],binding stably
TELQTTIHDI (Human Papillomavirus),binding stably to HLA molecules of the A29 type,[1],binding stably
same,binding stably to HLA molecules of the B44 type,[2],binding stably
LEDSSGNLL (listed as Homo sapiens),binding stably to HLA molecules of the B44 type,[2],binding stably
FAFRDLCIV (Human Papillomavirus),binding stably to HLA molecules of the A2 type,[7],binding stably
same,binding stably to HLA molecules of the B35 type,[4],binding stably
same,binding stably to HLA molecules of the B51 type,[8],binding stably
same,binding stably to HLA molecules of the B7 type,[5],binding stably
RRPILTIITL (listed as Homo sapiens),binding stably to HLA molecules of the B27 type,[9],binding stably
YMLDLQPETT,binding stably to HLA molecules of the A2 type,[7],binding stably
RFHNIRGRW (Human Papillomavirus),binding stably to HLA molecules of the A24 type,[3],binding stably
GDTPTLHEY (Human Papillomavirus),binding stably to HLA molecules of the B44 type,[2],binding stably
RPILTIITL,binding stably to HLA molecules of the B35 type,[4],binding stably
same,binding stably to HLA molecules of the B7 type,[5],binding stably
QRFHNIRGRW (Human Papillomavirus),binding stably to HLA molecules of the B27 type,[9],binding stably
SYGFRLGFL (listed as Homo sapiens),binding stably to HLA molecules of the A24 type,[3],binding stably
LEQQYNKPL,binding stably to HLA molecules of the A29 type,[1],binding stably
same,binding stably to HLA molecules of the B44 type,[2],binding stably
TFRHSVVV (listed as Homo sapiens),binding stably to HLA molecules of the A24 type,[3],binding stably
SEYRHYCY (Human Papillomavirus),binding stably to HLA molecules of the A29 type,[1],binding stably
same,binding stably to HLA molecules of the B44 type,[2],binding stably
TYSPALNKMF,binding stably to HLA molecules of the A24 type,[3],binding stably
LLMGTLGIV,binding stably to HLA molecules of the A2 type,[7],binding stably
RVEGNLRVEY (listed as Homo sapiens),binding stably to HLA molecules of the A2 type,[7],binding stably
LLGRNSFEV,binding stably to HLA molecules of the A2 type,[7],binding stably
RREVYDFAFR (Human Papillomavirus),binding stably to HLA molecules of the B27 type,[9],binding stably
IVYRDGNPY,binding stably to HLA molecules of the A11 type,[10],binding stably
same,binding stably to HLA molecules of the A3 type,[11],binding stably
CYSLYGTTL (Human Papillomavirus),binding stably to HLA molecules of the A24 type,[3],binding stably
KPLCDLLI (Human Papillomavirus),binding stably to HLA molecules of the B35 type,[4],binding stably
same,binding stably to HLA molecules of the B51 type,[8],binding stably
same,binding stably to HLA molecules of the B7 type,[5],binding stably
KLPQLCTEL,binding stably to HLA molecules of the A2 type,[7],binding stably
CVYCKQQL (Human Papillomavirus),binding stably to HLA molecules of the B8 type,[6],binding stably
LECVYCKQQL (Human Papillomavirus),binding stably to HLA molecules of the A29 type,[1],binding stably
same,binding stably to HLA molecules of the B44 type,[2],binding stably
APPQHLIRV,binding stably to HLA molecules of the B7 type,[5],binding stably
FRDLCIVYR (Human Papillomavirus),binding stably to HLA molecules of the A11 type,[10],binding stably
same,binding stably to HLA molecules of the A3 type,[11],binding stably
NIVTFCCK (Human Papillomavirus),binding stably to HLA molecules of the A11 type,[10],binding stably
same,binding stably to HLA molecules of the A3 type,[11],binding stably
GLAPPQHLIRV,binding stably to HLA molecules of the A2 type,[7],binding stably
YDFAFRDL (Human Papillomavirus),binding stably to HLA molecules of the A29 type,[1],binding stably
same,binding stably to HLA molecules of the B44 type,[2],binding stably
PEEKQRHL (Human Papillomavirus),binding stably to HLA molecules of the B44 type,[2],binding stably
IVCPICSQK,binding stably to HLA molecules of the A11 type,[10],binding stably
same,binding stably to HLA molecules of the A3 type,[11],binding stably
SDCTTIHYNY (listed as Homo sapiens),binding stably to HLA molecules of the B44 type,[2],binding stably
FRHSVVVPY (listed as Homo sapiens),binding stably to HLA molecules of the B27 type,[9],binding stably
TLEQQYNK (Human Papillomavirus),binding stably to HLA molecules of the A11 type,[10],binding stably
same,binding stably to HLA molecules of the A3 type,[11],binding stably
GSYGFRLGFL (listed as Homo sapiens),binding stably to HLA molecules of the B35 type,[4],binding stably
ALNKMFCQL (listed as Homo sapiens),binding stably to HLA molecules of the B35 type,[4],binding stably
TPTLHEYML (Human Papillomavirus),binding stably to HLA molecules of the B35 type,[4],binding stably
IYKQSQHM (listed as Homo sapiens),binding stably to HLA molecules of the A24 type,[3],binding stably
KKQRFHNIR (Human Papillomavirus),binding stably to HLA molecules of the B27 type,[9],binding stably
VEGNLRVEY (listed as Homo sapiens),binding stably to HLA molecules of the B44 type,[2],binding stably
TRVRAMAIYK (listed as Homo sapiens),binding stably to HLA molecules of the B27 type,[9],binding stably
RVRAMAIYK (listed as Homo sapiens),binding stably to HLA molecules of the A3 type,[11],binding stably
EYLDDRNTF,binding stably to HLA molecules of the A24 type,[3],binding stably
IILECVYCK (Human Papillomavirus),binding stably to HLA molecules of the A11 type,[10],binding stably
